Data reported in US5686486A, “4-hydroxy-benzopyran-2-ones and 4-hydroxy-cycloalkyl[b]pyran-2-ones useful to treat retroviral infections” (priority 1995, dated 1997).
Structures can show the parent of a compound that is named as a salt. Where two headings read alike, the source gives them in different places. Values belong to the molecule of their own block, whether it stands above or below them.

Target: HIV-1 protease (Human immunodeficiency virus type 1 group M subtype B, UniProt P04585)
Test: biochemical
Conditions: for inhibition at 0.123 µM: read-out: HIV-1 Protease % Inhib, dose 0.123 uM; for IC50: HIV-1 Protease IC50
Outline: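 Biotinylated, FITC-labeled peptide substrate (20 μl of 0.2 μM) incubated with HIV-1 protease (10 μl of 0.1 μM) and compound in 0.1 M sodium acetate pH 5.5, 1.0 M NaCl, 0.05% NP-40, 1 h, room temperature, dark. Streptavidin beads then capture uncleaved substrate; filtered labeled product read by fluorescence, giving percent inhibition.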

[1] = dose 1.100 uM, read-out: HIV-1 Protease % Inhib
[2] = dose 3.300 uM, read-out: HIV-1 Protease % Inhib
[3] = dose 10.000 uM, read-out: HIV-1 Protease % Inhib
[4] = dose 30.000 uM, read-out: HIV-1 Protease % Inhib
[5] = read-out: HIV-1 Protease % Inhib, dose 1.000 uM
[6] = read-out: HIV-1 Protease % Inhib, dose 10.000 uM
[7] = read-out: HIV-1 Protease % Inhib, dose 100.000 uM
[8] = read-out: HIV-1 Protease % Inhib, dose 0.370 uM
[9] = read-out: HIV-1 Protease % Inhib, dose 1.100 uM
[10] = read-out: HIV-1 Protease % Inhib, dose 3.300 uM
[11] = read-out: HIV-1 Protease % Inhib, dose 30.000 uM
[12] = read-out: HIV-1 Protease % Inhib
[13] = dose 1.000 uM, read-out: HIV-1 Protease % Inhib
[14] = dose 100.000 uM, read-out: HIV-1 Protease % Inhib

inhibition at 0.37 µM (dose 0.370 uM, read-out: HIV-1 Protease % Inhib): 17.9%
inhibition at 1.1 µM [1]: 48%
inhibition at 3.3 µM [2]: 76.4%
inhibition at 10 µM [3]: 95.8%
inhibition at 30 µM [4]: 93.1%
Structure (SMILES): O=C(Nc1cccc(C(c2c(O)c3c(oc2=O)CCCCCC3)C2CC2)c1)c1ccc(Cl)cc1 (stereo not drawn) [Example 206, Benzamide, 4-chloro-N-[3-[cyclopropyl(5,6,7,8,9,10-hexahydro-4-hydroxy-2-oxo-2H-cycloocta[b]pyran-3-yl)methyl]phenyl]-]

Structure (SMILES): CCC(c1cccc(NC(=O)CC[C@H](NC(=O)OC(C)(C)C)C(=O)OC(C)(C)C)c1)c1c(O)c2ccccc2oc1=O (stereo partly drawn) [Example 51, L-Glutamine, N2-[(1,1-dimethylethoxy)carbonyl]-N-[3-[1-(4-hydroxy-2-oxo-2H-1-benzopyran-3-yl)propyl]phenyl]-, 1,1-dimethylethyl ester]
inhibition at 1 µM [5]: < 10%
inhibition at 10 µM [6]: < 10%
inhibition at 100 µM [7]: 39.6%

Structure (SMILES): CC(C)C(c1cccc(NS(=O)(=O)c2cccnc2)c1)c1c(O)c2c(oc1=O)CCCCCC2 (stereo not drawn) [Example 417, 3-Pyridinesulfonamide, N-[3-[1-(5,6,7,8,9,10-hexahydro4-hydroxy-2-oxo-2H-cycloocta[b]pyran-3-yl)-2-methylpropyl]phenyl]-]
inhibition at 0.123 µM: 36.4%
inhibition at 0.37 µM [8]: 65.9%
inhibition at 1.1 µM [9]: 89.2%
inhibition at 3.3 µM [10]: 95.1%
inhibition at 10 µM [6]: 102%
inhibition at 30 µM [11]: 97.3%

Structure (SMILES): COCCC1CCCCc2c1oc(=O)c(C(c1ccccc1)C1CC1)c2O (stereo not drawn) [Example 193, 3-(Cyclopropylphenylmethyl)-6,7,8,9-tetrahydro-4-hydroxy-9-(methoxyethyl)-cyclohepta[b]pyran-2(5H)-one]
inhibition at 1.1 µM [1]: 35%
inhibition at 3.3 µM [2]: 70.4%
inhibition at 10 µM [3]: 97.7%
inhibition at 30 µM [4]: 105%

Structure (SMILES): CCC(c1cccc(NC(=O)CN)c1)c1c(O)c2ccccc2oc1=O (stereo not drawn) [Example 46, Coumarin, 3-[1-[3-[[(aminomethyl)carbonyl]amino]phenyl]propyl]4-hydroxy-, trifluoroacetate (salt)]
IC50: 4200 nM
HIV-1 Protease % Inhib (dose 100.000 uM): 107%
inhibition at 1 µM [5]: 22.1%
inhibition at 10 µM [6]: 96.3%
inhibition at 100 µM [7]: 116%

inhibition at 0.37 µM [12]: 10.2%
inhibition at 1.1 µM [12]: 42.2%
inhibition at 3.3 µM [12]: 75.3%
inhibition at 10 µM [12]: 91.8%
inhibition at 30 µM [12]: 102%
Structure (SMILES): Cc1cccc(C)c1S(=O)(=O)Nc1cccc(C(c2c(O)c3c(oc2=O)CCCCCC3)C2CC2)c1 (stereo not drawn) [Example 329, N-[3-[Cyclopropyl(5,6,7,8,9,10-hexahydro-4-hydroxy-2-oxo-2H-cycloocta[b]pyran-3-yl)methyl]phenyl]-2,6-dimethyl-benzenesulfonamide]

Structure (SMILES): CCC(c1cccc(NC(=O)CCC2CCCCC2)c1)c1c(O)c2ccccc2oc1=O (stereo not drawn) [Example 56, Coumarin, 3-[1-[3-[(3-cyclohexyl-1-oxopropyl)amino]phenyl]propyl]-4-hydroxy-]
inhibition at 1 µM [5]: < 10%
inhibition at 10 µM [6]: < 10%
inhibition at 100 µM [7]: 49.5%

inhibition at 1 µM [13]: 39.6%
inhibition at 10 µM [3]: 99.8%
inhibition at 100 µM [14]: 109%
Structure (SMILES): O=c1oc2c(c(O)c1C(c1ccccc1)C1CC1)CCC2 (stereo not drawn) [Example 113, 3-(Cyclopropylphenylmethyl)-6,7-dihydro-4-hydroxy-cyclopenta[b]pyran-2(5H)-one]

Structure (SMILES): CCC(c1cccc(NC(=O)CCCc2ccccc2)c1)c1c(O)c2ccccc2oc1=O (stereo not drawn) [Example 53, Coumarin, 4-hydroxy-3-[1-[3-[(i-oxo-4-phenylbutyl)amino]phenyl]propyl]-]
inhibition at 1 µM [5]: < 10%
inhibition at 10 µM [6]: < 10%
inhibition at 100 µM [7]: 71.8%

Structure (SMILES): O=c1oc2c(c(O)c1C(c1cccc(NS(=O)(=O)c3ccc(Cl)c(Cl)c3Cl)c1)C1CC1)CCCCCC2 (stereo not drawn) [Example 410, 2,3,4-Trichloro-N-[3-[cyclopropyl(5,6,7,8,9,10-hexahydro-4-hydroxy-2-oxo-2H-cycloocta[b]pyran-3-yl)methyl]phenyl]-benzenesulfonamide]
inhibition at 0.123 µM: 49.5%
inhibition at 0.37 µM [8]: 79.7%
inhibition at 1.1 µM [9]: 91.4%
inhibition at 3.3 µM [10]: 90.9%
inhibition at 10 µM [6]: 96.8%
inhibition at 30 µM [11]: 98.3%

Structure (SMILES): CCCC(c1ccc(C)cc1)c1c(O)c2ccccc2oc1=O (stereo not drawn) [Example 18, 4-Hydroxy-3-(1-(4-methylphenyl)-butyl)-coumarin]
inhibition at 1 µM [5]: 13.4%
inhibition at 10 µM [6]: 52.5%

Structure (SMILES): CCC(c1cccc(NC(=O)CCCNC(=O)OC(C)(C)C)c1)c1c(O)c2ccccc2oc1=O (stereo not drawn) [Example 50, Coumarin, 4-hydroxy-3-[1-[3-[[4-[(1,1-dimethylethoxycarbonyl)amino]-1-oxobutyl]amino]phenyl]propyl]-]
IC50: 2300 nM
inhibition at 1 µM [5]: 33.5%
inhibition at 10 µM [6]: 80.3%
inhibition at 100 µM [7]: 95.5%

Structure (SMILES): CCC(c1cccc(Br)c1)c1c(O)c2ccccc2oc1=O (stereo not drawn) [Example 71, 3-(1'-(3-Bromophenyl)propyl)-4-hydroxycoumarin]
inhibition at 1 µM [5]: < 10%
inhibition at 10 µM [6]: 15%
inhibition at 100 µM [7]: 80%

inhibition at 1.1 µM [1]: 23.7%
inhibition at 3.3 µM [2]: 58.5%
inhibition at 10 µM [3]: 86.1%
inhibition at 30 µM [4]: 102%
Structure (SMILES): CCNC(=S)Nc1cccc(C(c2c(O)c3c(oc2=O)CCCCCC3)C2CC2)c1 (stereo not drawn) [Example 367, Thiourea, N-[3-[cyclopropyl(5,6,7,8,9,10-hexahydro-4-hydroxy-2-oxo-2H-cycloocta[b]pyran-3-yl)methyl]phenyl]-N'-ethyl-]

Structure (SMILES): CCCC(c1ccc(CC)cc1)c1c(O)c2ccccc2oc1=O (stereo not drawn) [Example 19, 3-(1-(4-Ethylphenyl)-butyl)-4-hydroxycoumarin]
inhibition at 1 µM [5]: < 10%
inhibition at 10 µM [6]: 36.8%

Structure (SMILES): CCC(c1cccc(NC(=O)CCc2ccccc2)c1)c1c(O)c2ccc(OC)cc2oc1=O (stereo not drawn) [Example 57, Coumarin, 4-hydroxy-7-methoxy-3-[1-[3-[(1-oxo-3-phenylpropyl)amino]phenyl]propyl]-]
IC50: 2800 nM
inhibition at 1 µM [5]: 17.6%
inhibition at 10 µM [6]: 94.4%
inhibition at 100 µM [7]: 99.3%

Structure (SMILES): O=c1oc2ccccc2c(O)c1Cc1ccc2ccccc2c1 [Example 3, 4-Hydroxy-3-(2-naphthylmethyl)coumarin]
inhibition at 1 µM [13]: < 10%
inhibition at 10 µM [3]: < 10%
inhibition at 100 µM [14]: 48.8%

inhibition at 1.1 µM [1]: 15%
inhibition at 3.3 µM [2]: 36.5%
inhibition at 10 µM [3]: 76.7%
inhibition at 30 µM [4]: 97.2%
Structure (SMILES): O=c1oc2c(c(O)c1C(c1ccccc1)C1CC1)CCCCCC2CO (stereo not drawn) [Example 173, 3-(Cyclopropylphenylmethyl)-5,6,7,8,9,10-hexahydro-4-hydroxy-10-(hydroxymethyl)-2H-cycloocta[b]pyran-2-one]

Structure (SMILES): CCC(c1ccccc1OC(C)=O)c1c(O)c2ccccc2oc1=O (stereo not drawn) [Example 73, 3-(1'-(2-Acetoxyphenyl)propyl)-4-hydroxycoumarin]
inhibition at 1 µM [5]: < 10%
inhibition at 10 µM [6]: 29.9%
inhibition at 100 µM [7]: 96.7%

inhibition at 3.3 µM [2]: 24.4%
inhibition at 10 µM [3]: 44.7%
inhibition at 30 µM [4]: 54.3%
Structure (SMILES): O=c1oc2c(c(O)c1C(c1cccc(NCCc3ccccc3)c1)C1CC1)CCCCCC2 (stereo not drawn) [Example 243, 3-[Cyclopropyl-[3-[(2-phenylethyl)amino]phenyl]methyl]-5,6,7,8,9, 10-hexahydro-4-hydroxy-2H-cycloocta[b]pyran-2-one]
